In patent US20240216369A1, “THE USE OF A SPLICING MODULATOR FOR A TREATMENT SLOWING PROGRESSION OF HUNTINGTON'S DISEASE” (Novartis AG, priority 2019, published 2024):

Columns and labels:
[1] = system: Huntingtin protein; test: In vitro evaluation in SH-SY5Y cells: Huntingtin protein by Western blot; format: cell-based, human; details: 48 hours
Method: Cultured human neuroblastoma (SH-SY5Y cell line) cells were treated at doses ranging from 5 nM-125 nM for 24 hours (for transcript evaluation) or 48 hours (for protein evaluation). RNA was quantified by Nanodrop 2000 (Thermo Scientific). cDNAs were synthesized from 140-400 ng RNA using Maxima First strand cDNA synthesis kit using a mix of oligo dT and random hexamers (Thermo Scientific) in 20 uL reaction at 25° C. for 10 min, 50° C. for 15 min then 85° C. for 5 min. Quantitative PCR was performed using Taqman Fast Advanced master mix (Thermo Scientific) in 20 uL with 4 uL of cDNA reaction and primers specific for each genes. The PCR steps were as follows: 95° C. for 20 sec then 40 cycles of 95° C. for 1 sec, 55° C. for 20 sec. […] Relative quantification of gene expression was performed using 2-AACT method. Fold changes in the mRNA expression level was calculated following normalization to […] glucuronidase beta (Gusb) as an endogenous reference (FIGS. 2a and 2b).
For protein analysis, cells were lysed in RIPA buffer with protease and phosphatase inhibitor (Thermo Scientific). […] Total protein concentration was quantified using the BCA protein Assay (Thermo Scientific). […] Protein bands were quantified by Image J.

[2] = system: HTT transcript; test: In vitro evaluation in SH-SY5Y cells: HTT transcript by quantitative PCR; format: cell-based, human; details: 24 hours
Method: Cultured human neuroblastoma (SH-SY5Y cell line) cells were treated at doses ranging from 5 nM-125 nM for 24 hours (for transcript evaluation) or 48 hours (for protein evaluation). RNA was quantified by Nanodrop 2000 (Thermo Scientific). cDNAs were synthesized from 140-400 ng RNA using Maxima First strand cDNA synthesis kit using a mix of oligo dT and random hexamers (Thermo Scientific) in 20 uL reaction at 25° C. for 10 min, 50° C. for 15 min then 85° C. for 5 min. Quantitative PCR was performed using Taqman Fast Advanced master mix (Thermo Scientific) in 20 uL with 4 uL of cDNA reaction and primers specific for each genes. The PCR steps were as follows: 95° C. for 20 sec then 40 cycles of 95° C. for 1 sec, 55° C. for 20 sec. The sequence of primers were, for WT human HTT, forward, 5′-[…]-3′ (SEQ ID NO: 1); reverse, 5′-[…]-3′ (SEQ ID NO: 2) and sequence of probe was 56-FAM/TTG TGA AAT/ZEN/TCG TGG TGG CAA CCC/3IABKFQ/(SEQ ID NO: 8), for HTT novel exon, forward, 5′-[…]-3′ (SEQ ID NO: 3); reverse, 5′-[…]-3′ (SEQ ID NO: 4) and sequence of probe/56-FAM/AAT TCG TGG/ZEN/TGG CAA CCC TTG AGA/3IABKFQ/(SEQ ID NO: 7). Relative quantification of gene expression was performed using 2-AACT method. Fold changes in the mRNA expression level was calculated following normalization to […] glucuronidase beta (Gusb) as an endogenous reference (FIGS. 2a and 2b).

[3] = Mouse population PK model (plasma); format: in vivo; details: popPK parameters (plasma)
Method: For the establishment of the PK/PD relationship and the development of a mouse PK/PD model, the PK parameters in mouse plasma were estimated considering PK data from studies with male C57BL/6 mice (10 mg/kg, single dose), rasH2 mice (1, 3, 4 and 10 mg/kg, repeated daily doses), and BacHD mice (10 and 50 mg/kg, single dose; 12 and 24 mg/kg, repeated, three times a week doses). […] The population PK model was described and executed by Monolix software (Version 2018R1, Lixoft).

[4] = system: mutant HTT protein; test: Repeat dose timecourse study in BacHD mice: HTT protein (Western blot); format: in vivo
Method: At 72 h 168 h, 240 h and 336 h (branaplam 24 mg/kg) after the last treatment (vehicle or 24 mg/kg branaplam for 1 week or 3 weeks), blood, CSF, and tissue samples were obtained for PK and PD analysis. To collect CSF, mice were placed in a rodent anesthesia induction chamber where they are exposed to 4-5% isoflurane in 100% oxygen carrier gas. Once an appropriate plane of anesthesia was achieved, they were moved to a nose cone so that maintenance levels of isoflurane (1-3%) could be delivered throughout the procedure. The dorsal aspect of their cervical and occipital region was surgically prepped to visualize the dura mater under a microscope. A glass micropipette attached to a micromanipulator was introduced to the cisterna magna via a puncture through the dura mater at a point where no vasculature was visualized, and CSF was allowed to flow into the micropipette via capillary action. After approximately 15-30 minutes, the micropipette was removed from the cisterna magna, the CSF sample was transferred into Eppendorf tubes, flash frozen in liquid nitrogen, and stored at −80° C.
Following CSF collection, mice were kept under anesthesia with isoflurane. Blood was obtained via submandibular vein bleeds and collected for RNA extraction (PD analysis) using RNAprotect Animal Blood Tubes, and plasma (PK analysis) using K2EDTA coated tubes. Cells were removed from plasma by centrifugation for 10 min at 2000×g at 4° C., and plasma samples were stored at −80° C. Following blood collection, mice were given a lethal dose of ketamine/xylazine ([…] of a 10 mg:1 mg), and perfused with 18 mL of 0.9% cold saline mixed with 2 mL of RNAlater (Ambion) solution for tissue collection. Liver, skeletal muscle, brain striatum, brain cortex, hemibrain and cerebellum samples were flash frozen in liquid nitrogen and stored at −80° C.
Snap-frozen mouse tissue samples were homogenized in RIPA buffer with protease and phosphatase inhibitor (Thermo Scientific) by Precellys at 6000 rpm for 40 sec. Supernatant was obtained by centrifugation for 20 min at 13,000 rpm at 4° C. Total protein concentration was quantified using the BCA protein Assay (Thermo Scientific). Samples were resolved in 3-8% Tris-Acetate protein gel under reducing condition. Proteins were transferred onto PVDF membrane (Millipore) and western blot analysis was performed using […] anti-Huntingtin antibody (Millipore #MAB2166), mouse anti-actin (Sigma, #A5316) and mouse anti-vinculin (Bio-Rad, #MCA465). Protein bands were quantified by Image J.
With a view to characterize the time course of HTT protein lowering and recovery and to better model the PK-PD relationship an extended time-course study was performed. BacHD mice received three weekly, oral doses of 24 mg/kg branaplam for three weeks. […]

[5] = 24 mg/kg, 3 weeks, time after last dose

CC1(C)CC(Oc2ccc(-c3ccc(-c4cn[nH]c4)cc3O)nn2)CC(C)(C)N1 [Compound 18, 5-(1H-pyrazol-4-yl)-2-(6-((2,2,6,6-tetramethylpiperidin-4-yl)oxy)pyridazin-3-yl)phenol]
reduction of normal Huntingtin protein ([1]; 5 nM-125 nM, Western blot): 50-70%
EC50 ([1]; read-out: EC50 for HTT protein lowering): 0.01 to 0.025 µM
increase in novel-exon-containing HTT transcript ([2]; 5 nM-125 nM): 100-500 fold
lowering of total Huntingtin transcript ([2]; 5 nM-125 nM): 30-90 % of normal endogenous levels
EC50 ([2]; Homo sapiens, read-out: EC50 for lowering of HTT transcript): 0.02 to 0.025 µM
CL/F ([3]; C57BL/6, rasH2, BacHD (pooled), other: extra-vascular administration): 3.35 L/h/kg
Q/F [3]: 0.504 L/h/kg
V1 [3]: 28.2 L/kg
V2 [3]: 32.5 L/kg
ka [3]: 0.429 h⁻¹
Tlag ([3]; pooled C57BL/6, rasH2 and BacHD data): 0.346 h
maximal HTT protein lowering (relative to vehicle) ([4]; 24 mg/kg oral three times weekly for 3 weeks, 72 h after last dose): approximately 45%
mutant HTT protein, 1 week versus 3 weeks of dosing ([4]; 24 mg/kg oral, three times weekly): time-dependent lowering trend
return of HTT protein to baseline, cortex [4, 5]: 72 to 168 h
return of HTT protein to baseline, striatum [4, 5]: 72 to 336 h
